Tests used:
[1] = biological target: Rho-associated protein kinase 2 (Homo sapiens) (UniProt O75116); assay: Inhibition of ROCK2 (unknown origin) assessed as residual enzyme activity at 1 uM relative to untreated control
[2] = biological target: Ephrin type-A receptor 2 (Homo sapiens) (UniProt P29317); assay: Inhibition of EPHA2 (unknown origin) assessed as residual enzyme activity at 1 uM relative to untreated control
[3] = biological target: Dual specificity protein kinase TTK (Homo sapiens) (UniProt P33981); assay: Inhibition of TTK (unknown origin) assessed as residual enzyme activity at 1 uM relative to untreated control
Chain of Dual specificity protein kinase TTK (Homo sapiens) (P33981 whole entry): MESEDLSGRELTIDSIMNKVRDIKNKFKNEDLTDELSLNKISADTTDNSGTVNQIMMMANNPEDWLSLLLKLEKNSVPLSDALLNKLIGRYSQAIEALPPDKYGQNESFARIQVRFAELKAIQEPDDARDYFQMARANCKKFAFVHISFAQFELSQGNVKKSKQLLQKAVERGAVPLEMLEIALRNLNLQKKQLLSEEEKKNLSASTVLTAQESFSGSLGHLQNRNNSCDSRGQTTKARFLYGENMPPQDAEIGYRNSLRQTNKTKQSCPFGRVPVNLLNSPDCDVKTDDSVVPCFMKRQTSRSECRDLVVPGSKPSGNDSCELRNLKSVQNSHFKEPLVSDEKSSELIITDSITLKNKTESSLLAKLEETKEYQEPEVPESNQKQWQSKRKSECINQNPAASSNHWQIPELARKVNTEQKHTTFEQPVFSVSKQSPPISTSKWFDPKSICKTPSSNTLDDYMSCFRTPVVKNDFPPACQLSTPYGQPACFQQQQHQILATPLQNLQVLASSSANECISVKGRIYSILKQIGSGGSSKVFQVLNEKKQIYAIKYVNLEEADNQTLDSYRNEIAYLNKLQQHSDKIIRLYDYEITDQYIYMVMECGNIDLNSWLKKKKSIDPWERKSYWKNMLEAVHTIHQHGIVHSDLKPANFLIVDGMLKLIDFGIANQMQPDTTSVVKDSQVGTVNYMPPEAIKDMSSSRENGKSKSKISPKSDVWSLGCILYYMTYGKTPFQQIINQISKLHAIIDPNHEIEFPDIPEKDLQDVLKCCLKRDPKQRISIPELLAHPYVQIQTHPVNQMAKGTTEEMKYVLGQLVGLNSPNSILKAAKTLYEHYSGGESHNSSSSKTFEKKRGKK

[4] = biological target: Calcium/calmodulin-dependent protein kinase type 1 (Homo sapiens) (UniProt Q14012); assay: Inhibition of CAMK1 (unknown origin) assessed as residual enzyme activity at 1 uM relative to untreated control
[5] = biological target: Mitogen-activated protein kinase kinase kinase 11 (Homo sapiens) (UniProt Q16584); assay: Inhibition of MLK3 (unknown origin) assessed as residual enzyme activity at 1 uM relative to untreated control
[6] = biological target: Glycogen synthase kinase-3 beta (Homo sapiens) (UniProt P49841); assay: Inhibition of GSK3beta (unknown origin) assessed as residual enzyme activity at 1 uM relative to untreated control
Chain of Glycogen synthase kinase-3 beta (Homo sapiens) (P49841 whole entry, looked up): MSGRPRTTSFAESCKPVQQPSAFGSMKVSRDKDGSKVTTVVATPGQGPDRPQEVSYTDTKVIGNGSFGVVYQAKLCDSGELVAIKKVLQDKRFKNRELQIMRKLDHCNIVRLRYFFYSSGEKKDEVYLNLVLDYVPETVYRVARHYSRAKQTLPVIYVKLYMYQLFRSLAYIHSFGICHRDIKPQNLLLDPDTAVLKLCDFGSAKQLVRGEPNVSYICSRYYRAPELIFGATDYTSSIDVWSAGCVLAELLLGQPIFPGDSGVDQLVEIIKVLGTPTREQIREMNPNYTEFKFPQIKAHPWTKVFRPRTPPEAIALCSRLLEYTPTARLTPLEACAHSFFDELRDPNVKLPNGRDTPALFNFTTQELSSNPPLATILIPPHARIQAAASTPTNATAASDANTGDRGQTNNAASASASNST

[7] = biological target: Serine/threonine-protein kinase D1 (Homo sapiens) (UniProt Q15139); assay: Inhibition of PKD1 (unknown origin) assessed as residual enzyme activity at 1 uM relative to untreated control
[8] = biological target: Dual specificity mitogen-activated protein kinase kinase 1 (Homo sapiens) (UniProt Q02750); assay: Inhibition of MKK1 (unknown origin) assessed as residual enzyme activity at 1 uM relative to untreated control
Chain of Dual specificity mitogen-activated protein kinase kinase 1 (Homo sapiens) (Q02750 whole entry, canonical isoform): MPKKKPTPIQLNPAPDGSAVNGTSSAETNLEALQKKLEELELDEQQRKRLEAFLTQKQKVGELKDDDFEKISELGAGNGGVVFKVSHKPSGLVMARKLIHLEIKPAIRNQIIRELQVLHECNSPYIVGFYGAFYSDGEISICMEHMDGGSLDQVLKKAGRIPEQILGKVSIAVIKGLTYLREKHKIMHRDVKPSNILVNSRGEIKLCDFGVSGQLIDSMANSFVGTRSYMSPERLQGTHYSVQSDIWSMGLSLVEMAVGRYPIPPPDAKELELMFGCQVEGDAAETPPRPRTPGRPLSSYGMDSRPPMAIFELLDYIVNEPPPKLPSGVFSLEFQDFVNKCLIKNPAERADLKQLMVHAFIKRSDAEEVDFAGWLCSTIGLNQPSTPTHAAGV

[9] = biological target: Casein kinase I isoform delta (Homo sapiens) (UniProt P48730); assay: Inhibition of CK1delta (unknown origin) assessed as residual enzyme activity at 1 uM relative to untreated control
[10] = biological target: Cyclin-dependent kinase 2/cyclin E1 (Homo sapiens, UniProt P24941); assay: Inhibition of human CDK2/cyclin E expressed in Sf9 insect cells using histone H1 as substrate in presence of [gamma-33P]ATP; format: cell-based
[11] = biological target: MAP/microtubule affinity-regulating kinase 3 (Homo sapiens) (UniProt P27448); assay: Inhibition of MARK3 (unknown origin) assessed as residual enzyme activity at 1 uM relative to untreated control
Chain of MAP/microtubule affinity-regulating kinase 3 (Homo sapiens) (P27448 whole entry, looked up): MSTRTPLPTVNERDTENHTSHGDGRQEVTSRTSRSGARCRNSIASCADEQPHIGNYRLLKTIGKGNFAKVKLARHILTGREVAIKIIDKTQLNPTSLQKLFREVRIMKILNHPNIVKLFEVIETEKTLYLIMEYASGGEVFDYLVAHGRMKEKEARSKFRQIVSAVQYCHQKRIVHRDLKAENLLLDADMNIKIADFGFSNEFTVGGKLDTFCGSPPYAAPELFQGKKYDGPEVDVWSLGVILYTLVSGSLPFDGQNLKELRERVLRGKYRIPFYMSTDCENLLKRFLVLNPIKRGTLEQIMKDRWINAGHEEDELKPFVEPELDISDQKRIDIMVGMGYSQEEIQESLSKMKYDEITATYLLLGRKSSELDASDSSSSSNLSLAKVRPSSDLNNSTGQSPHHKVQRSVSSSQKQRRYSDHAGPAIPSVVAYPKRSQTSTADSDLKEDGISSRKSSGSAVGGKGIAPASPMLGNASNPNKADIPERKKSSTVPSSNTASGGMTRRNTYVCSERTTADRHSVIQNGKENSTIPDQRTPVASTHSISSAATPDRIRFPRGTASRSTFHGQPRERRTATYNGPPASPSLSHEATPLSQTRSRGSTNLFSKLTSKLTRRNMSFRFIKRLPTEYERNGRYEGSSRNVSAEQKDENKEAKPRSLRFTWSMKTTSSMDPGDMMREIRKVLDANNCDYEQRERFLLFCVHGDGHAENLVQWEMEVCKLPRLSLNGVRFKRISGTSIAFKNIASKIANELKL

[12] = biological target: Myosin light chain kinase, smooth muscle (Homo sapiens) (UniProt Q15746); assay: Inhibition of SmMLCK (unknown origin) assessed as residual enzyme activity at 1 uM relative to untreated control
[13] = biological target: T1, TGF-beta receptor type-1 (Homo sapiens) (UniProt P36897); assay: Inhibition of ALK5 in serum starved human HeLa cells assessed as reduction in TGF-beta-induced SMAD2/3 nuclear transaction at 10 uM pre-incubated for 30 mins before TGF-beta stimulation for 30 mins by immunofluorescence analysis; format: cell-based
T1 sequence (whole entry): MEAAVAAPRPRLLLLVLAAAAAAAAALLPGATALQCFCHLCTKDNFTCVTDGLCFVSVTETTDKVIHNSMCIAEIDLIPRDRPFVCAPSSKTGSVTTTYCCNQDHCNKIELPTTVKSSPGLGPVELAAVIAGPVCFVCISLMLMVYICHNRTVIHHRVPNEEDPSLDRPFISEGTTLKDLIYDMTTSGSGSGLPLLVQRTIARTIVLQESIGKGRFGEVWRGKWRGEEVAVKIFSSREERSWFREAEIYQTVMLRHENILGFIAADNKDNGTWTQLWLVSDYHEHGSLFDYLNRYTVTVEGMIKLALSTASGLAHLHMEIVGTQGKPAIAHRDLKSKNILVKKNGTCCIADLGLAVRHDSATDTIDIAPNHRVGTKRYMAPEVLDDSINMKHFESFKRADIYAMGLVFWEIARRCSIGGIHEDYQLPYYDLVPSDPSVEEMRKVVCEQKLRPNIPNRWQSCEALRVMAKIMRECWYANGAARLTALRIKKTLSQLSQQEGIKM

[14] = biological target: High affinity nerve growth factor receptor (Homo sapiens) (UniProt P04629); assay: Inhibition of TRKA (unknown origin) assessed as residual enzyme activity at 1 uM relative to untreated control
Chain of High affinity nerve growth factor receptor (Homo sapiens) (P04629 33-796 limits assumed): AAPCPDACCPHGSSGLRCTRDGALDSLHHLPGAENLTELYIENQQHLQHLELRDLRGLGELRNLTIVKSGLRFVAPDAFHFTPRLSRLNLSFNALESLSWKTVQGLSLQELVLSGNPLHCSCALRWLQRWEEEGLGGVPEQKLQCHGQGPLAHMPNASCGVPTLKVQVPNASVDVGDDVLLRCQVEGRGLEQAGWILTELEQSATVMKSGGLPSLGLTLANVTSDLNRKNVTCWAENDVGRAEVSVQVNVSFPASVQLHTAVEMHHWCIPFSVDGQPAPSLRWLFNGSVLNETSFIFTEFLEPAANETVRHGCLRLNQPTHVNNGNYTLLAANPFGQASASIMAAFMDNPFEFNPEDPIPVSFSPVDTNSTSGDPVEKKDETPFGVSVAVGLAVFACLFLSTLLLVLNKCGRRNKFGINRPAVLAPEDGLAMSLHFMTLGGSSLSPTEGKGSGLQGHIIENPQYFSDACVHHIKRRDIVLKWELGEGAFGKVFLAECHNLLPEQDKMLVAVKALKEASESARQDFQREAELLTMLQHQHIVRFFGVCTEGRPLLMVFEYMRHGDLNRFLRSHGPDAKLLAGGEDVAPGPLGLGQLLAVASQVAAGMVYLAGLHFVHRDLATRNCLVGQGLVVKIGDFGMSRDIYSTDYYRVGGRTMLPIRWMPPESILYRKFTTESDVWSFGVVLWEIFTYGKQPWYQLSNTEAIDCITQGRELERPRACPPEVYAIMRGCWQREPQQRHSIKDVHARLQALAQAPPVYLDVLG

HeLa = assay: Cytotoxicity against human HeLa cells assessed as decrease in cell proliferation up to 100 uM after 72 hrs by calcein AM staining-based assay
[15] = biological target: Casein kinase 2 (Homo sapiens) (UniProt P67870+P68400+P19784+Q8NEV1); assay: Inhibition of CK2 (unknown origin) assessed as residual enzyme activity at 1 uM relative to untreated control; format: protein assay
[16] = biological target: Tyrosine-protein kinase Lck (Homo sapiens) (UniProt P06239); assay: Inhibition of LCK (unknown origin) assessed as residual enzyme activity at 1 uM relative to untreated control
TGF-beta receptor type-1 = biological target: T2, TGF-beta receptor type-1 (Homo sapiens, UniProt P36897); assay: Inhibition of human ALK5 expressed in Sf9 insect cells using casein as substrate in presence of [gamma-33P]ATP; format: cell-based
T2 sequence (P36897 whole entry): T1 sequence (whole entry)

[17] = biological target: Tyrosine-protein kinase ABL1 (Mus musculus, UniProt P00520); assay: biochemical; format: cell-based, Sf9
Chain of Tyrosine-protein kinase ABL1 (P00520 whole entry): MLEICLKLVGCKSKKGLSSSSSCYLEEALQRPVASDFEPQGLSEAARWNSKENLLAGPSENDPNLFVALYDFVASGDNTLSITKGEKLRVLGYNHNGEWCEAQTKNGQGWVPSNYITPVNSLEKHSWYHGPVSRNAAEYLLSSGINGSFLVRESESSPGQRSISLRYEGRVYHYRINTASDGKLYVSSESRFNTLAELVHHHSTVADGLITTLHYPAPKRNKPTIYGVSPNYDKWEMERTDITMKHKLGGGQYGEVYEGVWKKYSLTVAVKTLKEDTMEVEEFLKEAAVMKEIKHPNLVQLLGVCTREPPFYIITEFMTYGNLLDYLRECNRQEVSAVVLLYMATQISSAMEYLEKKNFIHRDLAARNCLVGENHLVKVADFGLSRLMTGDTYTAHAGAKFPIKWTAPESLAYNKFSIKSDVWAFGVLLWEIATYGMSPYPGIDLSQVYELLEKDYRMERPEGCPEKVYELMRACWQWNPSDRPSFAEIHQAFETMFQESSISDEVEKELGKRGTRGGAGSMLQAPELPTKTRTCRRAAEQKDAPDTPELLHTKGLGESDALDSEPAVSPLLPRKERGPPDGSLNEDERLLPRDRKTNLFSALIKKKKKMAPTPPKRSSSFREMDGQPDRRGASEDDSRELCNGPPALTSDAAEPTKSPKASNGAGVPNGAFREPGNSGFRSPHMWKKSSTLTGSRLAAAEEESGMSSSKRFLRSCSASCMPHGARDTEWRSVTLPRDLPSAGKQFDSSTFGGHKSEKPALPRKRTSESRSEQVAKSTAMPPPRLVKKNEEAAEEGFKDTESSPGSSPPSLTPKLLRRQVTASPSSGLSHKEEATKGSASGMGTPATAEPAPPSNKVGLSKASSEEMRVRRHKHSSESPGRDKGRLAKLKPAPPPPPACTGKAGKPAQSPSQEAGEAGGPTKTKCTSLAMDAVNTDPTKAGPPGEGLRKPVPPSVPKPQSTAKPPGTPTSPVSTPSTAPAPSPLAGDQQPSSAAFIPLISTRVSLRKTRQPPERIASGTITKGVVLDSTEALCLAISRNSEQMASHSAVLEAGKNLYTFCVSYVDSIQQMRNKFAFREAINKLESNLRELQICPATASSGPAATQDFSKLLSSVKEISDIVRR

[18] = biological target: Aurora kinase B (Homo sapiens) (UniProt Q96GD4); assay: Inhibition of Aurora B (unknown origin) assessed as residual enzyme activity at 1 uM relative to untreated control
Chain of Aurora kinase B (Homo sapiens) (Q96GD4 whole entry): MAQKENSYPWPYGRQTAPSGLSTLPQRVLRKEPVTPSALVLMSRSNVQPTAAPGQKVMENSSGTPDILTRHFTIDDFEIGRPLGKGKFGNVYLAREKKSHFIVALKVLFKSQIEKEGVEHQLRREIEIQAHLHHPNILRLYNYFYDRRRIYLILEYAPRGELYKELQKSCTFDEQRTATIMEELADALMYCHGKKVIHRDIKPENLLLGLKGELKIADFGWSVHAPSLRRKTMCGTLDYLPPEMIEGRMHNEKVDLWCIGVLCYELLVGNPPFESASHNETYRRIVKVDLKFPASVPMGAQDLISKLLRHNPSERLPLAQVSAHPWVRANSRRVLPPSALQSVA

MCF7 = assay: Cytotoxicity against human MCF7 cells assessed as decrease in cell proliferation after 72 hrs by calcein AM staining-based assay; format: functional; conditions: MCF7, 72 h
[19] = biological target: T1, TGF-beta receptor type-1 (Homo sapiens); assay: Inhibition of ALK5 in serum starved human HeLa cells assessed as reduction in TGF-beta-induced SMAD2 S465/467 phosphorylation pre-incubated for 30 mins before TGF-beta stimulation for 30 mins by immunoblotting analysis; format: cell-based
[20] = biological target: Serine/threonine-protein kinase pim-1 (Homo sapiens) (UniProt P11309); assay: Inhibition of PIM1 (unknown origin) assessed as residual enzyme activity at 1 uM relative to untreated control
[21] = biological target: RAC-alpha serine/threonine-protein kinase (Homo sapiens) (UniProt P31749); assay: Inhibition of PKBalpha (unknown origin) assessed as residual enzyme activity at 1 uM relative to untreated control
BJ = assay: Cytotoxicity against human BJ cells assessed as decrease in cell proliferation up to 100 uM after 72 hrs by calcein AM staining-based assay
[22] = biological target: Receptor-interacting serine/threonine-protein kinase 2 (Homo sapiens) (UniProt O43353); assay: Inhibition of RIPK2 (unknown origin) assessed as residual enzyme activity at 1 uM relative to untreated control
[23] = biological target: Proto-oncogene tyrosine-protein kinase Src (Homo sapiens) (UniProt P12931); assay: Inhibition of SRC (unknown origin) assessed as residual enzyme activity at 1 uM relative to untreated control
[24] = biological target: Mitogen-activated protein kinase 14 (Homo sapiens) (UniProt Q16539); assay: Inhibition of p38alpha (unknown origin) assessed as residual enzyme activity at 1 uM relative to untreated control
Chain of Mitogen-activated protein kinase 14 (Homo sapiens) (Q16539 whole entry): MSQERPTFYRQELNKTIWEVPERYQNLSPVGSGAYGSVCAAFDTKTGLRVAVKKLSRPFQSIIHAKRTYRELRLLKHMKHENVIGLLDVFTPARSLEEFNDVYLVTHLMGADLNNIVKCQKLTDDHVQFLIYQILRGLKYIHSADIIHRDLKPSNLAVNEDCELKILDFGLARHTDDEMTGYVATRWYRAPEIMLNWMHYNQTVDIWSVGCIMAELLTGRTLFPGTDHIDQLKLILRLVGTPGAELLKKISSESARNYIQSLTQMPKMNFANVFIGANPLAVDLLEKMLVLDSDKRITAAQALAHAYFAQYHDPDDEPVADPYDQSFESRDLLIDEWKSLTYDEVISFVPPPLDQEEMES

[25] = biological target: AMP-activated protein kinase, AMPK (Homo sapiens) (UniProt P54646+O43741+P54619+Q9UGJ0+Q9Y478+Q13131+Q9UGI9); assay: Inhibition of AMPK (unknown origin) assessed as residual enzyme activity at 1 uM relative to untreated control; format: protein-complex assay

In the case of `Cc1cccc(-c2nn3c(c2-c2ccc(O)cc2)C(C)C(C)(C)C3)n1` (centres undefined), the Activity [1] is reported as over 80%, the Activity [2] is reported as over 80% and the Activity [3] is reported as over 80%. The Activity [4] was over 80%, the Activity [5] was 34% and the Activity [6] was 60 to 80%. The Activity [7] was 12%, the Activity [8] was over 80% and the Activity [9] was 34%. The IC50 [10] was over 100 µM, the Activity [11] was over 80% and the Activity [12] was over 80%. For the same compound, the inhibition [13] was 100%, the Activity [14] was over 80% and the Activity (HeLa) was “Non-Toxic”. For the same compound, the Activity [15] was 60 to 80%, the Activity [16] was over 80% and the IC50 (TGF-beta receptor type-1) was 0.08 µM. For the same compound, the IC50 [17] was 66 µM, the Activity [18] was over 80% and the IC50 (MCF7) was over 100 µM. For the same compound, the inhibition [19] was “Dose-dependent effect”, the Activity [20] was over 80% and the Activity [21] was over 80%. The Activity (BJ) was “Non-Toxic”, the Activity [22] was 11% and the Activity [23] was over 80%. For the same compound, the Activity [24] was 9% and the Activity [25] was over 80%.

Reference: ChEMBL document CHEMBL4270481, “ALK5 kinase inhibitory activity and synthesis of 2,3,4-substituted 5,5-dimethyl-5,6-dihydro-4H-pyrrolo[1,2-b]pyrazoles” (Eur J Med Chem, 2017)
